Literature values as cited in patent publication US20160310758A1, “SYSTEMS AND METHODS FOR PHOTOACTIVATING A PHOTOSENSITIZER APPLIED TO AN EYE” (Avedro, Inc., priority 2015, published 2016).

Key:
bacteria = details: D2O by itself, without photosensitizer; Skladnev et al. 1996
[1] = non-ionic permeability enhancer in riboflavin formulations

Molecule	killing of bacteria (bacteria)	HLB number [1]
[2H]O[2H] [D2O, deuterated water]	does not kill bacteria	–
Polyoxyethylene (9) lauryl ether [Polidocanol]	–	approximately 13.6
